# Tested on: fresh-cut apples
# Assay: Anti-browning experiment on fresh-cut apples
# Set-up: species or system Fuji apples
# Settings: 50 µM, stored at 5 °C for 4 days
row,SMILES,L* value of fresh-cut apples
1,"O=c1cc(CO)occ1O [Kojic acid, kojic acid, reference compound]",63.04
2,"O=C1O[C@H]([C@@H](O)CO)C(O)=C1O [Vc, ascorbic acid, reference compound]",63.58

# Target: T1, mushroom tyrosinase (Agaricus bisporus, UniProt C7FF04)
# Assay: biochemical
# Settings: not given
# T1 sequence (C7FF04 1-392 limits assumed): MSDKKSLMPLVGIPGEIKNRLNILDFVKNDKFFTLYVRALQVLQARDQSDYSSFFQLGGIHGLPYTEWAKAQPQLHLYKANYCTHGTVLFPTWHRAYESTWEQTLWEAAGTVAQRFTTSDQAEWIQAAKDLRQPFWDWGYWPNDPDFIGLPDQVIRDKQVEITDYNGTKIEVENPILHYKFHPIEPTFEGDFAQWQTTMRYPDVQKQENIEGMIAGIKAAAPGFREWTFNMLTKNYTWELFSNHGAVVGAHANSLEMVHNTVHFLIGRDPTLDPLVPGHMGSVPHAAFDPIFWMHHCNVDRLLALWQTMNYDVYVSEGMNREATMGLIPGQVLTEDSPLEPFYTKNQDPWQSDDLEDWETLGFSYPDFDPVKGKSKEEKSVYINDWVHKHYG
row,IC50 [µM],SMILES
1,2.474 ± 0.023,"O=Cc1cccc(OCc2cn(Cc3cc(=O)c(O)co3)nn2)c1 [Compound 13a, 3-((1-((5-hydroxy-4-oxo-4H-pyran-2-yl)methyl)-1H-1,2,3-triazol-4-yl)methoxy)-benzaldehyde]"
2,4.604 ± 0.046,"CC(=O)c1cccc(OCc2cn(Cc3cc(=O)c(O)co3)nn2)c1 [Compound 13b, 2-((4-((3-acetylphenoxy)methyl)-1H-1,2,3-triazol-1-yl)methyl)-5-hydroxy-4H-pyran-4-one]"
3,4.55 ± 0.062,"O=Cc1ccc(OCc2cn(Cc3cc(=O)c(O)co3)nn2)cc1 [Compound 13c, 4-((1-((5-hydroxy-4-oxo-4H-pyran-2-yl)methyl)-1H-1,2,3-triazol-4-yl)methoxy)benzaldehyde]"
4,9.908 ± 0.044,"CC(=O)c1ccc(OCc2cn(Cc3cc(=O)c(O)co3)nn2)cc1 [Compound 13d, 2-((4-((4-acetylphenoxy)methyl)-1H-1,2,3-triazol-1-yl)methyl)-5-hydroxy-4H-pyran-4-one]"
5,5.961 ± 0.036,"O=Cc1ccc(F)cc1OCc1cn(Cc2cc(=O)c(O)co2)nn1 [Compound 13f, 4-fluoro-2-((1-((5-hydroxy-4-oxo-4H-pyran-2-yl)methyl)-1H-1,2,3-triazol-4-yl)methoxy)benzaldehyde]"
6,2.1 ± 0.078,"O=Cc1ccccc1OCc1cn(Cc2cc(=O)c(O)co2)nn1 [Compound 13g, 2-((1-((5-hydroxy-4-oxo-4H-pyran-2-yl)methyl)-1H-1,2,3-triazol-4-yl)methoxy)benzaldehyde]"
7,1.517 ± 0.01,"CC(=O)c1ccccc1OCc1cn(Cc2cc(=O)c(O)co2)nn1 [Compound 13k, 2-((4-((2-acetylphenoxy)methyl)-1H-1,2,3-triazol-1-yl)methyl)-5-hydroxy-4H-pyran-4-one]"
8,4.98 ± 0.057,"CC(C)(C)c1cccc(C=O)c1OCc1cn(Cc2cc(=O)c(O)co2)nn1 [Compound 13l, 3-(tert-butyl)-2-((1-((5-hydroxy-4-oxo-4H-pyran-2-yl)methyl)-1H-1,2,3-triazol-4-yl)methoxy)benzaldehyde]"
9,4.571 ± 0.004,"O=Cc1ccc(Cl)cc1OCc1cn(Cc2cc(=O)c(O)co2)nn1 [Compound 13m, 4–CHloro-2-((1-((5-hydroxy-4-oxo-4H-pyran-2-yl)methyl)-1H-1,2,3-triazol-4-yl)methoxy)benzaldehyde]"
10,4.231 ± 0.029,"O=Cc1ccc(Br)cc1OCc1cn(Cc2cc(=O)c(O)co2)nn1 [Compound 13p, 4-bromo-2-((1-((5-hydroxy-4-oxo-4H-pyran-2-yl)methyl)-1H-1,2,3-triazol-4-yl)methoxy)benzaldehyde]"

# Continued, compound first:
row,SMILES,IC50 [µM]
1,"O=C(Nc1nnc(SCc2cn(Cc3cc(=O)c(O)co3)nn2)s1)c1ccccc1 [Compound 6a, N-(5-(((1-((5-hydroxy-4-oxo-4H-pyran-2-yl)methyl)-1H-1,2,3-triazol-4-yl)meth-yl)thio)-1,3,4-thiadiazol-2-yl)benzamide]",20.59 ± 0.037
2,"Cc1ccccc1C(=O)Nc1nnc(SCc2cn(Cc3cc(=O)c(O)co3)nn2)s1 [Compound 6b, N-(5-(((1-((5-hydroxy-4-oxo-4H-pyran-2-yl)methyl)-1H-1,2,3-triazol-4-yl)meth-yl)thio)-1,3,4-thiadiazol-2-yl)-2-methylbenzamide]",> 200
3,"Cc1cccc(C(=O)Nc2nnc(SCc3cn(Cc4cc(=O)c(O)co4)nn3)s2)c1 [Compound 6c, N-(5-(((1-((5-hydroxy-4-oxo-4H-pyran-2-yl)methyl)-1H-1,2,3-triazol-4-yl)meth-yl)thio)-1,3,4-thiadiazol-2-yl)-3-methylbenzamide]",> 200
4,"Cc1ccc(C(=O)Nc2nnc(SCc3cn(Cc4cc(=O)c(O)co4)nn3)s2)cc1 [Compound 6d, N-(5-(((1-((5-hydroxy-4-oxo-4H-pyran-2-yl)methyl)-1H-1,2,3-triazol-4-yl)meth-yl)thio)-1,3,4-thiadiazol-2-yl)-4-methylbenzamide]",> 200
5,"O=C(Nc1nnc(SCc2cn(Cc3cc(=O)c(O)co3)nn2)s1)c1ccc(Cl)cc1 [Compound 6e, 4–CHloro-N-(5-(((1-((5-hydroxy-4-oxo-4H-pyran-2-yl)methyl)-1H-1,2,3-triazol-4-yl)methyl)thio)-1,3,4-thiadiazol-2-yl)benzamide]",6.073 ± 0.035
6,"O=C(Nc1nnc(SCc2cn(Cc3cc(=O)c(O)co3)nn2)s1)c1ccc(F)cc1 [Compound 6g, 4-fluoro-N-(5-(((1-((5-hydroxy-4-oxo-4H-pyran-2-yl)methyl)-1H-1,2,3-triazol-4-yl)methyl)thio)-1,3,4-thiadiazol-2-yl)benzamide]",8.24 ± 0.023
7,"COc1ccc(C(=O)Nc2nnc(SCc3cn(Cc4cc(=O)c(O)co4)nn3)s2)cc1 [Compound 6h, N-(5-(((1-((5-hydroxy-4-oxo-4H-pyran-2-yl)methyl)-1H-1,2,3-triazol-4-yl)meth-yl)thio)-1,3,4-thiadiazol-2-yl)-4-methoxybenzamide]",5.56 ± 0.078
8,"Nc1ccc(C(=O)Nc2nnc(SCc3cn(Cc4cc(=O)c(O)co4)nn3)s2)cc1 [Compound 6i, 4-amino-N-(5-(((1-((5-hydroxy-4-oxo-4H-pyran-2-yl)methyl)-1H-1,2,3-triazol-4-yl)methyl)thio)-1,3,4-thiadiazol-2-yl)benzamide]",16.31 ± 0.016
9,"O=C(Cc1ccc(Cl)cc1)Nc1nnc(SCc2cn(Cc3cc(=O)c(O)co3)nn2)s1 [Compound 6m, 2-(4–CHlorophenyl)-N-(5-(((1-((5-hydroxy-4-oxo-4H-pyran-2-yl)methyl)-1H-1,2,3-triazol-4-yl)methyl)thio)-1,3,4-thiadiazol-2-yl)acetamide]",10.17 ± 0.032
10,"O=C(Cc1ccc(Br)cc1)Nc1nnc(SCc2cn(Cc3cc(=O)c(O)co3)nn2)s1 [Compound 6n, 2-(4-bromophenyl)-N-(5-(((1-((5-hydroxy-4-oxo-4H-pyran-2-yl)methyl)-1H-1,2,3-triazol-4-yl)methyl)thio)-1,3,4-thiadiazol-2-yl)acetamide]",12.36 ± 0.039
11,"O=C(Cc1ccc(F)cc1)Nc1nnc(SCc2cn(Cc3cc(=O)c(O)co3)nn2)s1 [Compound 6o, 2-(4-fluorophenyl)-N-(5-(((1-((5-hydroxy-4-oxo-4H-pyran-2-yl)methyl)-1H-1,2,3-triazol-4-yl)methyl)thio)-1,3,4-thiadiazol-2-yl)acetamide]",11.98 ± 0.022

# Target: T1, mushroom tyrosinase
# Assay: not given
# Settings: read-out: Tyrosinase inhibitory activity IC50
row,IC50 [µM],SMILES
1,1.74 ± 0.048,"CC(=O)c1ccc(OCc2cn(Cc3cc(=O)c(O)co3)nn2)c(C)c1 [Compound 13e, 2-((4-((4-acetyl-2-methylphenoxy)methyl)-1H-1,2,3-triazol-1-yl)methyl)-5-hydr-oxy-4H-pyran-4-one]"
2,2.817 ± 0.007,"COc1ccc(C=O)c(OCc2cn(Cc3cc(=O)c(O)co3)nn2)c1 [Compound 13j, 2-((1-((5-hydroxy-4-oxo-4H-pyran-2-yl)methyl)-1H-1,2,3-triazol-4-yl)methox-y)-4-methoxybenzaldehyde]"
3,6.818 ± 0.027,"CC(=O)c1ccc(C)cc1OCc1cn(Cc2cc(=O)c(O)co2)nn1 [Compound 13n, 2-((4-((2-acetyl-5-methylphenoxy)methyl)-1H-1,2,3-triazol-1-yl)methyl)-5-hy-droxy-4H-pyran-4-one]"
4,1.83 ± 0.042,"CC(=O)c1cc(C)ccc1OCc1cn(Cc2cc(=O)c(O)co2)nn1 [Compound 13o, 2-((4-((2-acetyl-4-methylphenoxy)methyl)-1H-1,2,3-triazol-1-yl)methyl)-5-hy-droxy-4H-pyran-4-one]"
5,3.03 ± 0.059,"CC(=O)c1ccc(Cl)cc1OCc1cn(Cc2cc(=O)c(O)co2)nn1 [Compound 13q, 2-((4-((2-acetyl-5–CHlorophenoxy)methyl)-1H-1,2,3-triazol-1-yl)methyl)-5-hy-droxy-4H-pyran-4-one]"
6,3.33 ± 0.057,"CC(=O)c1ccc(Br)cc1OCc1cn(Cc2cc(=O)c(O)co2)nn1 [Compound 13r, 2-((4-((2-acetyl-5-bromophenoxy)methyl)-1H-1,2,3-triazol-1-yl)methyl)-5-hy-droxy-4H-pyran-4-one]"
7,2.58 ± 0.049,"CC(=O)c1ccc(F)cc1OCc1cn(Cc2cc(=O)c(O)co2)nn1 [Compound 13s, 2-((4-((2-acetyl-5-fluorophenoxy)methyl)-1H-1,2,3-triazol-1-yl)methyl)-5-hy-droxy-4H-pyran-4-one]"

# Second part, the compound before the results:
row,SMILES,IC50 [µM]
1,"Cc1ccccc1CC(=O)Nc1nnc(SCc2cn(Cc3cc(=O)c(O)co3)nn2)s1 [Compound 6j, N-(5-(((1-((5-hydroxy-4-oxo-4H-pyran-2-yl)methyl)-1H-1,2,3-triazol-4-yl)met-hyl)thio)-1,3,4-thiadiazol-2-yl)-2-(o-tolyl)acetamide]",17.26 ± 0.038
2,"Cc1cccc(CC(=O)Nc2nnc(SCc3cn(Cc4cc(=O)c(O)co4)nn3)s2)c1 [Compound 6k, N-(5-(((1-((5-hydroxy-4-oxo-4H-pyran-2-yl)methyl)-1H-1,2,3-triazol-4-yl)met-hyl)thio)-1,3,4-thiadiazol-2-yl)-2-(m-tolyl)acetamide]",13.81 ± 0.066
3,"Cc1ccc(CC(=O)Nc2nnc(SCc3cn(Cc4cc(=O)c(O)co4)nn3)s2)cc1 [Compound 6l, N-(5-(((1-((5-hydroxy-4-oxo-4H-pyran-2-yl)methyl)-1H-1,2,3-triazol-4-yl)met-hyl)thio)-1,3,4-thiadiazol-2-yl)-2-(p-tolyl)acetamide]",3.289 ± 0.011
4,"COc1ccc(CC(=O)Nc2nnc(SCc3cn(Cc4cc(=O)c(O)co4)nn3)s2)cc1 [Compound 6p, N-(5-(((1-((5-hydroxy-4-oxo-4H-pyran-2-yl)methyl)-1H-1,2,3-triazol-4-yl)met-hyl)thio)-1,3,4-thiadiazol-2-yl)-2-(4-methoxyphenyl)acetamide]",3.832 ± 0.005

# Reference: paper PMC12041489 (Scientific Reports, 2025)
